Measured values from ChEMBL document CHEMBL5126536, “Small molecules targeting γ-secretase and their potential biological applications” (Eur J Med Chem, 2022).
Each block holds one compound with its values, some of them ahead of it.

Assays:
[1] = biological target: Amyloid-beta precursor protein (Homo sapiens, UniProt P05067); experiment: Modulation of amyloid beta 42 in human H4 cells expressing APP751 incubated overnight by ELISA; assay type: cell-based
[2] = Inhibition of Notch (unknown origin) by cell-based assay; conditions: Homo sapiens
[3] = system: Mus musculus; experiment: Modulation of gamma secretase in hippocampus of C57BL mouse assessed as reduction in amyloid beta 42 at 3 mg/kg, po measured for 0.5 to 18 hrs by ELISA relative to control; assay type: organism-based; set-up: scale not given: the % may be the effect or the level left; conditions: time 0.5-18 hrs
[4] = system: Mus musculus; experiment: Modulation of gamma secretase in hippocampus of C57BL mouse assessed as reduction in amyloid beta 42 at 10 mg/kg, po measured for 0.5 to 18 hrs by ELISA relative to control; assay type: organism-based; conditions: filed as modulator, time 0.5-18 hrs
[5] = organism: Homo sapiens; experiment: Selectivity ratio, ratio of IC50 for gamma-secretase (unknown origin) to IC50for Notch (unknown origin)
[6] = Metabolic stability in human liver microsomes assessed as half life; assay type: ADME, Microsome
[7] = biological target: Gamma-secretase; experiment: Inhibition of gamma-secretase (unknown origin) assessed as inhibition of Amyloid beta 40 production by cell-free assay; assay type: protein-complex assay, Homo sapiens
[8] = biological target: Gamma-secretase; experiment: Inhibition of gamma-secretase (unknown origin) assessed as inhibition of Amyloid beta 42 production by cell-free assay; assay type: protein-complex assay, Homo sapiens
[9] = Ratio of drug concentration in Tg2576 mouse brain to plasma at 1 to 30 mg/kg, po; assay type: ADME, organism-based; conditions: dose 1-30 mg/kg, read-out: BPR
[10] = Toxicity in Sprague-Dawley rat assessed as maximum tolerated dose administered orally upto 28 days consecutively; conditions: in vivo, route po, time < 28 day
[11] = Modulation of gamma-secretase in human H4 cells expressing APPswe mutant assessed as reduction in amyloid beta 42 by ELISA; assay type: cell-based
[12] = Oral bioavailability in rat; assay type: ADME, organism-based; conditions: in vivo
[13] = Half life in rat; assay type: ADME; conditions: in vivo
[14] = Inhibition of Notch in human H4 cells; assay type: cell-based
[15] = biological target: Gamma-secretase; experiment: Inhibition of gamma-secretase in human H4 cells assessed as reduction in amyloid beta 42; assay type: cell-based
[16] = system: Mus musculus; experiment: Antialzheimer activity in Tg2576 mouse model assessed as decrease in amyloid beta 42 level at 10 mg/kg measured on day 8; assay type: functional; set-up: scale not given: the % may be the effect or the level left; conditions: time 8 day
[17] = system: Mus musculus; experiment: Antialzheimer activity in Tg2576 mouse model assessed as decrease in amyloid beta 40 level at 10 mg/kg measured on day 8; assay type: functional; set-up: scale not given: the % may be the effect or the level left; conditions: time 8 day
[18] = Inhibition of amyloid beta (unknown origin) production; set-up: species or system Homo sapiens
[19] = Inhibition of Notch cleavage in transgenic HEK293 cells; assay type: cell-based; conditions: Homo sapiens

Chain of Amyloid-beta precursor protein (P05067 whole entry): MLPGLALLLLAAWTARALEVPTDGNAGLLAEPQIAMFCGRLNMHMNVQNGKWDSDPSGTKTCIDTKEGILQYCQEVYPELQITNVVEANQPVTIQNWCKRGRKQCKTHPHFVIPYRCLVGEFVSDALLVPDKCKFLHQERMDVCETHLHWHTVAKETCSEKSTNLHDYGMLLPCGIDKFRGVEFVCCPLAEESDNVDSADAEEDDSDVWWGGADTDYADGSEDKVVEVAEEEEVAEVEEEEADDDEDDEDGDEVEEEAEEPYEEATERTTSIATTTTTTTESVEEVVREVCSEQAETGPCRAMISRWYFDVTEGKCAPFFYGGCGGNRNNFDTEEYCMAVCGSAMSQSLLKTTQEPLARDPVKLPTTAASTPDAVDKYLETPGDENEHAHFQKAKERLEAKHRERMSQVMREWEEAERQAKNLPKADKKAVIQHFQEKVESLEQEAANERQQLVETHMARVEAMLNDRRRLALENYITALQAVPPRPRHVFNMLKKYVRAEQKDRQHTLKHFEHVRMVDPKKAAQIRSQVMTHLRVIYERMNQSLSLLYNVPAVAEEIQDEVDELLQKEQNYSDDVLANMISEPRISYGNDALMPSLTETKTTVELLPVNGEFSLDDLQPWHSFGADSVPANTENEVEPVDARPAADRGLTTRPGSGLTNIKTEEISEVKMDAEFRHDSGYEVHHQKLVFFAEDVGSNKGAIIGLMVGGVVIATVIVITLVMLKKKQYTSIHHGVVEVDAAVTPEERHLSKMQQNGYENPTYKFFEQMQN

SMILES: COc1nc(C2=NOC[C@H](c3cc4ccccc4o3)N2)ccc1-n1cnc(C)c1
EC50 [1]: 35 nM

SMILES: COc1cc(-c2nnc3n2CCC[C@]3(Oc2cc(F)c(F)c(F)c2)C(C)(C)O)ccc1-c1cnc(C)o1
Activity [3]: 23.2%
inhibition [4]: 46.5%

SMILES: O=S(=O)(N[C@H](CO)C(C(F)(F)F)C(F)(F)F)c1ccc(Cl)s1 [BEGACESTAT]
Ratio IC50 [5]: 16.8
half-life [6]: 1.5 h
EC50 [7]: 14.8 nM
EC50 [8]: 12.4 nM
Kp [9]: > 1
MTD at 672 h [10]: 2000 mg/kg/day

Further lines, with some results ahead:

IC50 [2]: 0.41 nM
SMILES: C[C@H](NC(=O)CCC(F)(F)F)C(=O)N[C@@H]1C(=O)N(CCO)c2ncccc2-c2ccccc21

IC50 [11]: 3600 nM
bioavailability [12]: 50%
half-life [13]: 20 h
SMILES: O=C(O)C1(c2ccc(-c3ccc(Cl)c(Cl)c3)c(F)c2)CC1

IC50 [14]: 14.1 nM
IC50 [15]: 10.9 nM
SMILES: CC(C)[C@H](O)C(=O)N[C@@H](C)C(=O)N[C@@H]1C(=O)N(C)CCc2ccccc21
Activity [16]: 22%
Activity [17]: 22%

IC50 [18]: 0.082 nM
IC50 [19]: 0.39 nM
SMILES: C[C@H](NC(=O)[C@@H](O)c1cc(F)cc(F)c1)C(=O)N[C@@H]1C(=O)N(C)c2ccccc2-c2ccccc21
